From PubChem BioAssay (NCI)
Several values for one entry are separate records, joined by “and”; a condition that tells them apart may be missing. Identical values can stand only once.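 Where inhibition never reached the appropriate level, the endpoint shown equals the highest concentration tested. Otherwise, values were interpolated linearly from a five-concentration, 48-hour dose response in 96-well plates. Abbreviation: GI50, concentration required for 50% inhibition of growth. TGI marks complete inhibition of growth.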

Key:
Experiment in all cases: growth of human tumour cells (NCI), 48 h
SNB-78 CNS = system: SNB-78 CNS
RPMI-8226 leukemia = system: RPMI-8226 leukemia
SF-268 CNS = system: SF-268 CNS
SK-OV-3 ovarian = system: SK-OV-3 ovarian
SF-539 CNS = system: SF-539 CNS
OVCAR-4 ovarian = system: OVCAR-4 ovarian
DMS 273 small cell lung = system: DMS 273 small cell lung
NCI-H460 lung = system: NCI-H460 lung
SNB-75 CNS = system: SNB-75 CNS
MDA-MB-435 = system: MDA-MB-435

With `CSC(=O)C[C@@]12O[C@@H]([C@@H](C)C3CCC4[C@@H]5C(O)CC6=CC(=O)C=C[C@]6(C)C5CC[C@@]43C)C[C@](C)(O1)C(C)(C)O2` (some centres undefined) the TGI (SNB-78 CNS) was 37.6 µM, the TGI (RPMI-8226 leukemia) was 34.3 µM and the TGI (SF-268 CNS) was 34.6 µM. The TGI (SK-OV-3 ovarian) was 42.6 µM, the TGI (SF-539 CNS) was 30.7 µM and the TGI (OVCAR-4 ovarian) was 28.3 µM. For the same compound, the TGI (DMS 273 small cell lung) was 35.9 µM and the TGI (NCI-H460 lung) was 35.8 µM.

Work on `CC(=O)OC12C(C)=C(C)C(=O)N1c1ccccc1N2C(C)=O` (centres undefined) yielded a TGI (SNB-78 CNS) greater than 100 µM, a TGI (RPMI-8226 leukemia) greater than 100 µM and a TGI (SNB-75 CNS) greater than 100 µM. The TGI (SF-268 CNS) was greater than 100 µM, the TGI (SK-OV-3 ovarian) was greater than 100 µM and the TGI (OVCAR-4 ovarian) was greater than 100 µM. The TGI (DMS 273 small cell lung) was greater than 100 µM and the TGI (NCI-H460 lung) was greater than 100 µM.

Work on `COC(=O)CCC(=O)Nc1ccc(Cl)cc1C` yielded a TGI (SNB-78 CNS) greater than 100 µM, a TGI (RPMI-8226 leukemia) greater than 100 µM and a TGI (SNB-75 CNS) greater than 100 µM. The TGI (SF-268 CNS) was greater than 100 µM, the TGI (SK-OV-3 ovarian) was greater than 100 µM and the TGI (SF-539 CNS) was greater than 100 µM. It also gave a TGI (OVCAR-4 ovarian) greater than 100 µM, a TGI (DMS 273 small cell lung) greater than 100 µM and a TGI (NCI-H460 lung) greater than 100 µM.

For `CCN(CC)CCN(CC)CC.CCN(CC)CCN(CC)CC.[Cu+2].[Cu+2].[O-][Cl+3]([O-])([O-])[O-].[OH3+].[OH3+]`, the GI50 (SNB-78 CNS) was greater than 100 µM, the TGI (SNB-78 CNS) was greater than 100 µM and the GI50 (RPMI-8226 leukemia) was 83.2 µM. It also gave a TGI (RPMI-8226 leukemia) greater than 100 µM, a GI50 (SNB-75 CNS) of 23.6 µM and a TGI (SNB-75 CNS) of 39.4 µM. The GI50 (SF-268 CNS) was 23.9 µM, the TGI (SF-268 CNS) was 50.3 µM and the GI50 (SK-OV-3 ovarian) was 13.9 µM. It also gave a TGI (SK-OV-3 ovarian) of 27.3 µM, a GI50 (SF-539 CNS) greater than 100 µM and a TGI (SF-539 CNS) greater than 100 µM. For the same compound, the GI50 (OVCAR-4 ovarian) was 27.7 µM, the TGI (OVCAR-4 ovarian) was 51.2 µM and the GI50 (DMS 273 small cell lung) was 22 µM. It also gave a TGI (DMS 273 small cell lung) greater than 100 µM, a GI50 (NCI-H460 lung) of 15.5 µM and a TGI (NCI-H460 lung) of 37.6 µM.

Compound `Nc1nc(=O)n(C2CCC(CO)O2)cc1F` (centres undefined) has a TGI (SNB-78 CNS) greater than 100 µM, a TGI (RPMI-8226 leukemia) greater than 100 µM and a TGI (SNB-75 CNS) greater than 100 µM. The TGI (SF-268 CNS) was greater than 100 µM, the TGI (SK-OV-3 ovarian) was greater than 100 µM and the TGI (OVCAR-4 ovarian) was greater than 100 µM. The TGI (DMS 273 small cell lung) was greater than 100 µM and the TGI (NCI-H460 lung) was greater than 100 µM.

Work on `CC(Oc1ccc2c(-c3ccc(Cl)cc3)cc(=O)oc2c1)C(=O)O` (centres undefined) yielded a TGI (SNB-78 CNS) greater than 100 µM, a TGI (SNB-75 CNS) greater than 100 µM and a TGI (SF-268 CNS) greater than 100 µM. It also gave a TGI (SK-OV-3 ovarian) greater than 100 µM, a TGI (SF-539 CNS) greater than 100 µM and a TGI (OVCAR-4 ovarian) greater than 100 µM. It also gave a TGI (NCI-H460 lung) greater than 100 µM.

Compound `CSC(=NC(=O)c1ccccc1Cl)SCCSC(=NC(=O)c1ccccc1Cl)SC` has a TGI (SNB-78 CNS) greater than 100 µM, a TGI (RPMI-8226 leukemia) greater than 100 µM and a TGI (SNB-75 CNS) greater than 100 µM. It also gave a TGI (SF-268 CNS) greater than 100 µM, a TGI (SF-539 CNS) greater than 100 µM and a TGI (OVCAR-4 ovarian) greater than 100 µM. The TGI (DMS 273 small cell lung) was greater than 100 µM and the TGI (NCI-H460 lung) was greater than 100 µM.

`CC(=O)OCc1c(O)c2c([nH]c1=O)CCc1ccccc1-2` was tested, and the TGI (RPMI-8226 leukemia) was greater than 350 µM, the TGI (SF-268 CNS) was 221 µM and the TGI (SK-OV-3 ovarian) was greater than 350 µM. For the same compound, the TGI (SF-539 CNS) was 177 µM, the TGI (DMS 273 small cell lung) was 159 µM and the TGI (NCI-H460 lung) was 283 µM.

In the case of `Cc1ccc(/C=C/C(=O)c2ccc(Cl)c(Cl)c2)cc1`, the TGI (SNB-78 CNS) was greater than 100 µM, the TGI (SNB-75 CNS) was greater than 100 µM and the TGI (SF-268 CNS) was greater than 100 µM. It also gave a TGI (OVCAR-4 ovarian) greater than 100 µM, a TGI (DMS 273 small cell lung) greater than 100 µM and a TGI (NCI-H460 lung) greater than 100 µM.

For `O=S1(=O)c2ccccc2N(O)C2=NCCN21`, the TGI (SNB-78 CNS) was greater than 100 µM, the TGI (RPMI-8226 leukemia) was greater than 100 µM and the TGI (SNB-75 CNS) was greater than 100 µM. It also gave a TGI (SF-268 CNS) greater than 100 µM, a TGI (SK-OV-3 ovarian) greater than 100 µM and a TGI (SF-539 CNS) greater than 100 µM. The TGI (DMS 273 small cell lung) was greater than 100 µM and the TGI (NCI-H460 lung) was greater than 100 µM.

`O=C1CCCCCCC2=C1C(Sc1ccccc1)CC2` (centres undefined) showed a TGI (SNB-78 CNS) greater than 100 µM, a TGI (RPMI-8226 leukemia) of 95.5 µM and a TGI (SNB-75 CNS) of 90.7 µM. For the same compound, the TGI (SF-268 CNS) was 44 µM, the TGI (SK-OV-3 ovarian) was greater than 100 µM and the TGI (OVCAR-4 ovarian) was greater than 100 µM. For the same compound, the TGI (DMS 273 small cell lung) was 61.7 µM and the TGI (NCI-H460 lung) was greater than 100 µM.

Work on `COc1ccc(CC(=O)NCCc2ccc(OC)c(OC)c2OC)cc1` yielded a TGI (SNB-78 CNS) greater than 100 µM, a TGI (RPMI-8226 leukemia) greater than 100 µM and a TGI (SNB-75 CNS) greater than 100 µM. The TGI (SF-268 CNS) was greater than 100 µM, the TGI (SK-OV-3 ovarian) was greater than 100 µM and the TGI (SF-539 CNS) was 36.7 µM. For the same compound, the TGI (NCI-H460 lung) was greater than 100 µM.

`CCCCCCCCCCCCSC(=S)c1c(C)[nH]n(-c2ccccc2)c1=O` gave a TGI (SNB-78 CNS) greater than 50 µM, a TGI (RPMI-8226 leukemia) greater than 50 µM and a TGI (SF-268 CNS) greater than 50 µM. It also gave a TGI (SK-OV-3 ovarian) greater than 50 µM, a TGI (SF-539 CNS) of 33.9 µM and a TGI (OVCAR-4 ovarian) greater than 50 µM.

`O=C(C[n+]1ccccc1)N/N=C(/CCC(=O)N(Cc1ccccc1)Cc1ccccc1)CC(=O)c1ccccc1` was tested, and the TGI (SNB-78 CNS) was greater than 100 µM, the TGI (RPMI-8226 leukemia) was greater than 100 µM and the TGI (SNB-75 CNS) was greater than 100 µM. For the same compound, the TGI (SF-268 CNS) was greater than 100 µM, the TGI (SF-539 CNS) was greater than 100 µM and the TGI (OVCAR-4 ovarian) was greater than 100 µM. For the same compound, the TGI (DMS 273 small cell lung) was greater than 100 µM and the TGI (NCI-H460 lung) was greater than 100 µM.

In the case of `O=C(O)Cc1cccc2c(=O)cc(-c3ccccc3)oc12`, the TGI (SNB-78 CNS) was greater than 250 µM, the GI50 (RPMI-8226 leukemia) was 388 µM and the TGI (RPMI-8226 leukemia) was 250 µM and > 1000 µM. The GI50 (SNB-75 CNS) was 345 µM, the TGI (SNB-75 CNS) was 249 µM and > 676 µM and the GI50 (SF-268 CNS) was 814 µM. For the same compound, the TGI (SF-268 CNS) was greater than 1000 µM, the GI50 (SK-OV-3 ovarian) was greater than 813 µM and the TGI (SK-OV-3 ovarian) was 250 µM and > 1000 µM. The GI50 (SF-539 CNS) was 398 µM, the TGI (SF-539 CNS) was > 250 µM and 838 µM and the GI50 (OVCAR-4 ovarian) was 546 µM. For the same compound, the TGI (OVCAR-4 ovarian) was 250 µM and > 1000 µM, the TGI (DMS 273 small cell lung) was greater than 250 µM and the GI50 (NCI-H460 lung) was 545 µM. For the same compound, the TGI (NCI-H460 lung) was greater than 1000 µM, the GI50 (MDA-MB-435) was 518 µM and the TGI (MDA-MB-435) was greater than 1000 µM.

`O=[N+]([O-])c1nccn1CC(O)c1ccccc1` (centres undefined) was tested, and the TGI (RPMI-8226 leukemia) was greater than 100 µM, the TGI (SNB-75 CNS) was greater than 100 µM and the TGI (SF-268 CNS) was greater than 100 µM. It also gave a TGI (SK-OV-3 ovarian) greater than 100 µM, a TGI (SF-539 CNS) greater than 100 µM and a TGI (OVCAR-4 ovarian) greater than 100 µM. The TGI (DMS 273 small cell lung) was greater than 100 µM and the TGI (NCI-H460 lung) was greater than 100 µM.

For `CCOC(=O)C12CCCC1(O)N(NC(=O)OC)C(C)=C2C(=O)OC` (centres undefined), the TGI (SNB-78 CNS) was greater than 100 µM, the TGI (RPMI-8226 leukemia) was greater than 100 µM and the TGI (SF-268 CNS) was greater than 100 µM. The TGI (SK-OV-3 ovarian) was greater than 100 µM, the TGI (SF-539 CNS) was greater than 100 µM and the TGI (OVCAR-4 ovarian) was greater than 100 µM. The TGI (DMS 273 small cell lung) was greater than 100 µM and the TGI (NCI-H460 lung) was greater than 100 µM.
